Data set [1] is described as follows: Standard CCK-8 cytotoxicity assay. The class given is cell-based. The settings on record: African green monkey, Vero E6 cells, 48 hours incubation. The method, then: Vero E6 African green monkey kidney cell line was obtained from American Type Culture Collection (ATCC, No. 1586) and maintained in MEM medium (MEM; Gibco Invitrogen) supplemented with 10% fetal bovine serum (FBS; Gibco Invitrogen) at 37° C. in an atmosphere of 5% CO2.
Standard CCK-8 assays were performed to measure the cytotoxic effect of the drug candidates on Vero E6 cells, which was performed in accordance with the manufacturer's instructions (Beyotime, China).

For another data set, the system named is SARS-CoV-2. Kind of data set: microbe, parasite or virus in culture. It counts as cell-based. As to conditions: for EC50: Severe acute respiratory syndrome coronavirus 2, Vero C1008, Vero E6 cells, MOI 0.05, 1 hour pretreatment, viral RNA in supernatant 48 hours post infection; for SI (selectivity index): from the CC50 and EC50 values in Vero E6 cells.

The structures appear in SMILES notation.

In general, CC50 refers to the concentration giving 50% cytotoxicity. Higher therefore signals better tolerance by the cells. As a reminder, the EC50 is the midpoint of the concentration-response curve. Take `CC(=O)Oc1ccccc1C(=O)Nc1ncc([N+](=O)[O-])s1` [NTZ, o-[N-(5-nitro-1,3-thiazol-2-yl)carbamoyl]phenol acetate)]: the CC50 at 48 h in data set [1] amounted to 36.8 µM. Moreover, in the data set with SARS-CoV-2, the EC50 was determined as 2.1 µM and the “SI (selectivity index)” value is recorded as 17.5.

`NC(=O)c1ncn([C@@H]2O[C@H](CO)[C@@H](O)[C@H]2O)n1` [RBV, 1-[(2R, 3R, 4S, 5R)-3,4-dihydroxy-5-(hydroxymethyl)oxolan-2-yl]-1H-1,2,4-triazole-3-carboxamide] had a CC50 at 48 h in data set [1] above 400 µM. Moreover, in the data set on SARS-CoV-2, the EC50 came to 109 µM and the “SI (selectivity index)” value is above 3.7.

For the origin of these results see patent US20230241037A1, “CROSS-LINKED MEDICATION FOR TREATMENT OF CORONAVIRAL INFECTION AND METHOD OF TREATMENT” (1GLOBE HEALTH INSTITUTE, NANJING, priority 2020, published 2023).
